This passage reports GI50 and TGI results from PubChem BioAssay (NCI).

Several values for one entry are separate records, joined by “and”; a condition that tells them apart may be missing. Equal values may be shown once.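 The compound was tested at five concentrations on cells cultured in 96-well plates, with a 48-hour exposure period. At the GI50, growth is halved. Definition used: TGI = concentration required for complete inhibition of growth.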

Test systems include T-47D breast; KM20L2 colon; RXF-631 renal; M19-MEL melanoma; MDA-N; XF 498 CNS.
Holding throughout (experiment): growth of human tumour cells (NCI), 48 h

As to `COc1ccc(/C=C\c2cc(OC)c(OC)c(OC)c2)c(NS(=O)(=O)c2ccc(C)cc2)c1O`, in the experiment on T-47D breast, the GI50 was 21 µM and the TGI was above 100 µM.
The matching figures for `CC[C@H](C)[C@H](NC(=O)C12C3C4C1C1C2C3C41NC(C)=O)C(=O)N(C)[C@H](C[C@@H](OC(C)=O)c1nc(C(=O)N[C@@H](Cc2ccccc2)C[C@H](C)C(=O)OC)cs1)C(C)C` (some centres not stated): above 14.3 µM and above 14.3 µM.
The corresponding values for `COc1cc(C2C(C#N)=C(N)OC3=C2C(=O)c2ccccc2C3=O)cc(OC)c1OC` (configuration not stated) are 3.72 µM and 20.4 µM.
For the compound `COc1ccc(NC(=O)c2cc(OC)c(OC)c(OC)c2)cc1O`, in the experiment on T-47D breast, the GI50 was 9.89 µM and the TGI was above 100 µM.
On to `CC1=C2C(c3ccccc3)(c3ccccc3)C3C=CC2(C=N3)N(C(=O)NC2CCCCC2)C1=O` (configuration not stated), for which the TGI in the experiment with KM20L2 colon was 30.6 µM; in the experiment with RXF-631 renal it was 26.2 µM.
Consider `Cn1cnc([N+](=O)[O-])c1Sc1ncnc2c1ncn2C1OC(CO)C(O)C1O` (configuration not stated), for which, in the experiment with T-47D breast, the GI50 was 5.01 µM and the TGI was above 100 µM.
For the compound `CCC1(CN(C)C)CC/C(=C\c2ccc3c(c2)OCO3)C1=O` (configuration not stated), the TGI with M19-MEL melanoma, in the experiment with KM20L2 colon and in the experiment on RXF-631 renal was above 100 µM in each case.
On to `COc1ccc(NC(=O)C(=O)C2NC(=S)NC2=O)c(OC)c1` (configuration not stated), for which the TGI with M19-MEL melanoma, in the experiment with KM20L2 colon and with RXF-631 renal was above 100 µM in each case.
As for `CN(C)c1ccc(/C=C/c2ccnc3ccccc23)cc1`, in the experiment on MDA-N, the TGI stood at 40.1 µM. In addition, in the experiment on T-47D breast, the GI50 is 2.57 µM; the TGI is > 100 µM and 63.8 µM.
Regarding `C[Se]C(=O)CC1=C2C=C(F)C=CC2/C(=C\c2ccc(S(C)=O)cc2)C1C` (configuration not stated), in the experiment on T-47D breast, the GI50 was 2.94 µM and the TGI was above 34 µM.
Take `C/C(=N\Nc1ccc([N+](=O)[O-])cc1)C(=O)N(C)Nc1ccccc1`: the TGI in the experiment with M19-MEL melanoma, in the experiment with KM20L2 colon and with XF 498 CNS was above 100 µM throughout.
Regarding `FC(F)(F)c1ccc(-c2cnc(Br)nc2NC2CCCCCC2)cc1`, in the experiment with T-47D breast, the GI50 was 19.6 µM and the TGI is above 100 µM.
As to `CCN(CC)CCCNC(=O)Cc1ccccc1Nc1c(Cl)cccc1Cl`, the results for the TGI with M19-MEL melanoma, in the experiment on KM20L2 colon and in the experiment on XF 498 CNS were 17.4 µM, 12.4 µM and 20.8 µM, respectively.
In the case of `COc1ccc(C(Nc2ncccn2)c2cc3c(cc2O)OCO3)cc1` (configuration not stated), the TGI in the experiment on MDA-N was determined as 42.3 µM; in the experiment on T-47D breast, 28 µM.
With `COc1cc(Br)c(CC2=NCCc3cc(OC)c(OC)cc32)cc1OC`, the TGI in the experiment with M19-MEL melanoma, in the experiment on KM20L2 colon and in the experiment on RXF-631 renal was above 100 µM each time.
Take `COc1ccc2c(c1)OC13Oc4cc(OC)ccc4C=C1CCCC3=C2`: in the experiment with T-47D breast, the GI50 was 4.7 µM and the TGI was above 100 µM.
`CN(Cc1cnc2nc(N)nc(N)c2n1)c1ccc(C(=O)NC(CCC(=O)O)C(=O)O)cc1` (configuration not stated): in the experiment on T-47D breast, the GI50 is above 100 µM and the TGI is above 100 µM.
Turning to `COc1ccc(/C=C2\N=C3SC=C(N)N3C2=O)cc1`, in the experiment with T-47D breast, the GI50 was 0.334 µM and the TGI worked out at 14.9 µM.
`O=[N+]([O-])c1ccc(Cl)c(C2SCc3nc4ccccc4n32)c1` (configuration not stated) registered a TGI with M19-MEL melanoma above 100 µM.
On to `O=c1[nH]c(-c2ccc(C(F)(F)F)cc2)nc2c1CSCC2`, for which, in the experiment on T-47D breast, the GI50 is 23.7 µM and the TGI was determined as 98.1 µM.
The matching figures for `O=C(/C=C/c1ccco1)Nc1ncc(Cc2ccc(F)cc2)s1`: 0.03 µM and above 100 µM.
On to `O=C1C(c2ccccc2)=C(c2ccccc2)C(c2ccc(CCCCCCc3ccc(C4=C(c5ccccc5)C(=O)C(c5ccccc5)=C4c4ccccc4)cc3)cc2)=C1c1ccccc1`, for which the TGI in the experiment on M19-MEL melanoma, in the experiment on KM20L2 colon and with RXF-631 renal was above 100 µM in each case.
As for `CCNCCNc1cc(-c2ccc(F)cc2)c(C#N)c2nc3ccccc3n12`, in the experiment with T-47D breast, the GI50 was 2.26 µM and the TGI is 4.63 µM.
The corresponding values for `CC(C)(C)CC(C)(C)c1ccc(OCCOCCSC(=N)N)cc1` are 1.68 µM and 3.54 µM.
The matching figures for `C[C@H]1[C@@H](OCC(CO[C@H]2O[C@@H]3O[C@@]4(C)CC[C@H]5[C@H](C)CC[C@@H]([C@H]2C)[C@@]35OO4)=NOCC(=O)O)OC2O[C@@]3(C)CC[C@H]4[C@H](C)CC[C@@H]1[C@@]24OO3` (some centres not stated): below 0.01 µM and 0.331 µM.
Regarding `CC[C@@H]1OC2(C)CC(S(=O)(=O)c3ccccc3)CC1O2` (some centres not stated), the TGI with M19-MEL melanoma, in the experiment on KM20L2 colon and with RXF-631 renal was above 100 µM each time.
Turning to `COc1ccccc1-n1c(SCc2cc(OC)c(OC)c(OC)c2)nc2ccc(Cl)cc2c1=O`, in the experiment on T-47D breast, the GI50 is 4.95 µM and the TGI is above 100 µM.
The matching figures for `Fc1ccc(-c2ncn(C3CCNCC3)c2-c2ccnc(Oc3cccc(F)c3)n2)cc1`: 13.8 µM and above 25 µM.
Take `CC(=O)OC1CCC2(C)C(=CC(C3C=C4CC(OC(C)=O)CCC4(C)C4=C3C3CC5OC6(CCC(C)CO6)C(C)C5C3(C)CC4)C3=C2CCC2(C)C3CC3OC4(CCC(C)CO4)C(C)C32)C1` (configuration not stated): the TGI was found to be 30.9 µM with MDA-N and 42.7 µM in the experiment on T-47D breast.
Turning to `CC(=O)N1CC(F)(F)c2c(Sc3ncc(N4CCC5(CC4)COC[C@H]5N)nc3N)cccc21`, in the experiment with T-47D breast, the GI50 is 17.6 µM and the TGI was above 100 µM.
`COc1ccc(C(=O)C=C2NCCN2)cc1`: the TGI in the experiment on M19-MEL melanoma and in the experiment on KM20L2 colon was above 100 µM in each case.
In the experiment on M19-MEL melanoma, `COc1ccc(C2S/C(=C\c3ccc(OC)cc3OC)C(=O)N2NC(=O)Cc2ccccc2)cc1` (configuration not stated) came in with a TGI above 100 µM.
As for `Cn1c(O)c(C(=O)Nc2ccc([N+](=O)[O-])cc2)c(=O)n(C)c1=S`, the TGI with M19-MEL melanoma is above 45.3 µM; in the experiment with KM20L2 colon it was 20.4 µM.
In the case of `C[C@@H]1CC[C@@]2(OC1)O[C@H]1C[C@H]3[C@@H]4CC=C5C[C@@H](O[C@@H]6O[C@H](CO)[C@@H](O[C@@H]7O[C@@H](CO)[C@H](O)[C@H]7O)[C@H](O)[C@H]6O[C@@H]6O[C@@H](C)[C@H](O)[C@@H](O)[C@H]6O)CC[C@]5(C)[C@H]4CC[C@]3(C)[C@H]1[C@@H]2C`, in the experiment on T-47D breast, the GI50 is 1.39 µM and the TGI was found to be 2.73 µM.
For `CCCCCCCCCC(=O)CC(=O)c1c(O)cccc1O`, the results for the TGI in the experiment on M19-MEL melanoma, in the experiment on KM20L2 colon and in the experiment on XF 498 CNS were above 100 µM, above 100 µM and 40 µM, respectively.
